Marks after values point to notes of the source that are not given here.
Assays:
[1] = Rate of carbon disulfide loss from solutions on nitrogen bubbling (mass spectrometer); format: physicochemical; conditions: undiluted (pure CS2; Ex. 1 100%)
Protocol: The rate at which carbon disulfide is lost from diluted ammonium thiocarbonate compositions was determined by bubbling nitrogen through the solutions and measuring the carbon disulfide content of the gas which leaves the solution using a mass spectrometer.
In the determination, the solution, corresponding to that of Example 1 (containing 14.1 percent by weight carbon disulfide), was compared to pure carbon disulfide, and to serial dilutions of the Example 1 solution with water, which were 10, 1 and 0.1 volume percent solutions of the original composition. The results are tabulated below, wherein k is the calculated first order rate constant for loss of carbon disulfide, and t is the solution half-life.

[2] = Degradation time in sandy loam soil at different moisture (CS2 in air space by gas chromatography); format: physicochemical
Protocol: A sandy loam soil was placed in 1-liter glass bottles, fitted with stoppers having fluorocarbon liners and silicone rubber septa, to give a soil depth of about 4 cm. Water was added to the soil, in quantities to obtain 50 and 100 percent soil saturation. Thiocarbonate solution or carbon disulfide was then injected near the bottom of the soil layer, the bottles were promptly sealed, and the air space in the bottles was sampled at intervals with a syringe, for gas chromatographic analysis of CS₂. The results are summarized below, wherein degradation time is the number of hours required to achieve the maximum CS₂ concentration in the air space.

[3] = Effect of pH on production of CS2 from thiocarbonates in citrate-phosphate buffers (gas chromatography of air); format: physicochemical
Protocol: Pure carbon disulfide was also injected, for comparison. A syringe was used to periodically sample air in the bottle, and the air was analyzed by gas chromotography.

tomato plants = assay: Greenhouse nematocide experiment, plant dry weight / phytotoxicity; format: in vivo; conditions: Application 50 ppm; 37 days of growth
Excerpt: (§1) Eighty containers were used, each containing about 500 grams of sterilized sandy loam soil. Each container was given four 5-milliliter injections of extract from nematode-infested pepper roots, one inch below the soil surface, producing an initial population of 2000 root-knot nematode larvae per container.
(§2) Twenty treatments were replicated four times, each treatment consisting of solution injection into the soil at a two inch depth. The treatments included each of the six compositions from Example 3 at three levels, plus one level of the known nematocide 1,2-dibromo-3-chloropropane (DBCP), and a control with only water injected. After injection, each container was enclosed in a plastic bag and placed in the shade for three days. Upon removing the bags, the soils were aerated by stirring and were allowed to stand undisturbed for eight additional days. Following an additional aeration, a tomato seedling was planted in eac pot.
(§3) Each container received 25 milligrams nitrogen (as calcium nitrate) immediately after planting, followed by 2 grams of a slow release complete fertilizer. […] By use of a magnifying glass, the number of root galls was counted on each plant. […]
(§4) The results are shown in the following table, in which the "Application" represents milligrams of treatment per kilogram of soil, calculated as contained carbon disulfide for the Example 3 solutions. […]

[4] = test system: root-knot nematode larvae; assay: Greenhouse nematocide experiment with tomato plants, root gall count; format: in vivo; conditions: Application 50 ppm; mean of four replicates; asterisk = statistically indistinguishable
Excerpt: as §1, §2, §3, §4

Row | Compound | k, first order rate constant for loss of carbon disulfide [1] | Degradation Time ([2]; Soil Moisture 50 % of Saturation) | Degradation Time ([2]; Soil Moisture 100 % of Saturation) | Half-life (minutes) for production of carbon disulfide ([3]; pH 5.2, 125 milligrams of thiocarbonate ion per liter) | Half-life (minutes) for production of carbon disulfide ([3]; pH 6.0) | Half-life (minutes) for production of carbon disulfide ([3]; pH 7.0) | Half-life (minutes) for production of carbon disulfide ([3]; pH 8.0, CaCS4 values above pH 7 called unreliable) | Dry Weight, Grams Roots (tomato plants) | Dry Weight, Grams Total (tomato plants) | Gall Count [4]
1 | S=C=S [CS₂, carbon disulfide, reference compound] | 2.0 h⁻¹ | 3.5 h | 3.5 h | 1 min | 1 min | 1 min | 1 min |  |  | 
2 | ClCC(Br)CBr (stereo not shown) [DBCP, 1,2-dibromo-3-chloropropane] |  |  |  |  |  |  |  | 0.273 Grams | 1.238 Grams | 0*
